Test results from PubChem BioAssay (NCI).
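At the GI50, growth is halved. At the TGI there is no net growth.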

Experiments:
Experiment in all cases: DTP human tumour cell line panel, 384-well format
ACHN renal = system: ACHN renal
SK-MEL-28 melanoma = system: SK-MEL-28 melanoma
NCI-H522 lung = system: NCI-H522 lung
HS 578T breast = system: HS 578T breast
M14 melanoma = system: M14 melanoma
NCI-H226 lung = system: NCI-H226 lung
CAKI-1 renal = system: CAKI-1 renal
DU-145 prostate = system: DU-145 prostate
IGROV1 ovarian = system: IGROV1 ovarian
KM12 colon = system: KM12 colon
RXF 393 renal = system: RXF 393 renal
A498 renal = system: A498 renal
OVCAR-8 ovarian = system: OVCAR-8 ovarian
BT-549 breast = system: BT-549 breast
MALME-3M melanoma = system: MALME-3M melanoma
SF-295 CNS = system: SF-295 CNS
LOX IMVI melanoma = system: LOX IMVI melanoma
786-0 renal = system: 786-0 renal
SR leukemia = system: SR leukemia
T-47D breast = system: T-47D breast
NCI-H23 lung = system: NCI-H23 lung
SNB-75 CNS = system: SNB-75 CNS
HOP-92 NSCLC = system: HOP-92 NSCLC
TK-10 renal = system: TK-10 renal
HOP-62 NSCLC = system: HOP-62 NSCLC
SN12C renal = system: SN12C renal
MDA-MB-435 melanoma = system: MDA-MB-435 melanoma
A549 NSCLC = system: A549 NSCLC
SK-MEL-5 melanoma = system: SK-MEL-5 melanoma
HCT-15 colon = system: HCT-15 colon
OVCAR-5 ovarian = system: OVCAR-5 ovarian
HCC-2998 colon = system: HCC-2998 colon
UACC-257 melanoma = system: UACC-257 melanoma
MOLT-4 leukemia = system: MOLT-4 leukemia
CCRF-CEM leukemia = system: CCRF-CEM leukemia
NCI-H460 NSCLC = system: NCI-H460 NSCLC
K-562 leukemia = system: K-562 leukemia
OVCAR-4 ovarian = system: OVCAR-4 ovarian
SF-268 CNS = system: SF-268 CNS
MDA-MB-468 breast = system: MDA-MB-468 breast
PC-3 prostate = system: PC-3 prostate
EKVX NSCLC = system: EKVX NSCLC
HT29 colon = system: HT29 colon
U251 glioblastoma = system: U251 glioblastoma
COLO 205 colon = system: COLO 205 colon
MDA-MB-231 breast = system: MDA-MB-231 breast
UACC-62 melanoma = system: UACC-62 melanoma
NCI/ADR-RES ovarian = system: NCI/ADR-RES ovarian
OVCAR-3 ovarian = system: OVCAR-3 ovarian
SW-620 colon = system: SW-620 colon
SK-OV-3 ovarian = system: SK-OV-3 ovarian
NCI-H322M lung = system: NCI-H322M lung
SF-539 CNS = system: SF-539 CNS
MCF7 breast = system: MCF7 breast
SNB-19 CNS = system: SNB-19 CNS

Nc1ncc(-c2cnn(CCO)c2)c2scc(-c3ccc(NC(=O)Nc4cccc(F)c4)cc3)c12
GI50 (ACHN renal): 352 nM | TGI (ACHN renal): 1770 nM | GI50 (SK-MEL-28 melanoma): 402 nM | TGI (SK-MEL-28 melanoma): 1720 nM | GI50 (NCI-H522 lung): 220 nM | TGI (NCI-H522 lung): 928 nM | GI50 (HS 578T breast): 226 nM | TGI (HS 578T breast): 943 nM | GI50 (M14 melanoma): 147 nM | TGI (M14 melanoma): 1140 nM | GI50 (NCI-H226 lung): 238 nM | TGI (NCI-H226 lung): 2090 nM | GI50 (CAKI-1 renal): 212 nM | TGI (CAKI-1 renal): 1200 nM | GI50 (DU-145 prostate): 462 nM | TGI (DU-145 prostate): 2380 nM | GI50 (IGROV1 ovarian): 385 nM | TGI (IGROV1 ovarian): 2550 nM | GI50 (KM12 colon): < 10 nM | TGI (KM12 colon): 1210 nM | GI50 (RXF 393 renal): 275 nM | TGI (RXF 393 renal): 1460 nM | GI50 (A498 renal): 312 nM | TGI (A498 renal): 1720 nM | GI50 (OVCAR-8 ovarian): 315 nM | TGI (OVCAR-8 ovarian): 2130 nM | GI50 (BT-549 breast): 323 nM | TGI (BT-549 breast): 1280 nM | GI50 (MALME-3M melanoma): 53.5 nM | TGI (MALME-3M melanoma): 646 nM | GI50 (SF-295 CNS): 186 nM | TGI (SF-295 CNS): 1370 nM | GI50 (LOX IMVI melanoma): 318 nM | TGI (LOX IMVI melanoma): 1320 nM | GI50 ([…]-0 renal): 373 nM | TGI (786-0 renal): 1740 nM | GI50 (SR leukemia): < 10 nM | TGI (SR leukemia): < 10 nM | GI50 (T-47D breast): 1450 nM | TGI (T-47D breast): 3.31 µM | GI50 (NCI-H23 lung): 178 nM | TGI (NCI-H23 lung): 603 nM | GI50 (SNB-75 CNS): 172 nM | TGI (SNB-75 CNS): 740 nM | GI50 (HOP-92 NSCLC): 238 nM | TGI (HOP-92 NSCLC): 1100 nM | GI50 (TK-10 renal): 920 nM | TGI (TK-10 renal): 3.62 µM | GI50 (HOP-62 NSCLC): 309 nM | TGI (HOP-62 NSCLC): 1810 nM | GI50 (SN12C renal): 179 nM | TGI (SN12C renal): 555 nM | GI50 (MDA-MB-435 melanoma): 317 nM | TGI (MDA-MB-435 melanoma): 1890 nM | GI50 (A549 NSCLC): 263 nM | TGI (A549 NSCLC): 3.77 µM | GI50 (SK-MEL-5 melanoma): 807 nM | TGI (SK-MEL-5 melanoma): 2070 nM | GI50 (HCT-15 colon): 349 nM | TGI (HCT-15 colon): 1720 nM | GI50 (OVCAR-5 ovarian): 612 nM | TGI (OVCAR-5 ovarian): 2200 nM | GI50 (HCC-2998 colon): 1160 nM | TGI (HCC-2998 colon): 2550 nM | GI50 (UACC-257 melanoma): 311 nM | TGI (UACC-257 melanoma): 1390 nM | GI50 (MOLT-4 leukemia): < 10 nM | TGI (MOLT-4 leukemia): < 10 nM | GI50 (CCRF-CEM leukemia): < 10 nM | TGI (CCRF-CEM leukemia): < 10 nM | GI50 (NCI-H460 NSCLC): < 10 nM | TGI (NCI-H460 NSCLC): 1060 nM | GI50 (K-562 leukemia): 16.7 nM | TGI (K-562 leukemia): 42.9 nM | GI50 (OVCAR-4 ovarian): 674 nM | TGI (OVCAR-4 ovarian): 2380 nM | GI50 (SF-268 CNS): 354 nM | TGI (SF-268 CNS): 1920 nM | GI50 (MDA-MB-468 breast): 18.8 nM | TGI (MDA-MB-468 breast): 74.9 nM | GI50 (PC-3 prostate): 1270 nM | TGI (PC-3 prostate): 3.73 µM | GI50 (EKVX NSCLC): 1030 nM | TGI (EKVX NSCLC): 2980 nM | GI50 (HT29 colon): 507 nM | TGI (HT29 colon): 2640 nM | GI50 (U251 glioblastoma): 812 nM | TGI (U251 glioblastoma): 2170 nM | GI50 (COLO 205 colon): < 10 nM | TGI (COLO 205 colon): 241 nM | GI50 (MDA-MB-231 breast): 1010 nM | TGI (MDA-MB-231 breast): 3.19 µM | GI50 (UACC-62 melanoma): 376 nM | TGI (UACC-62 melanoma): 1640 nM | GI50 (NCI/ADR-RES ovarian): 363 nM | TGI (NCI/ADR-RES ovarian): 10 µM | GI50 (OVCAR-3 ovarian): 188 nM | TGI (OVCAR-3 ovarian): 2010 nM | GI50 (SW-620 colon): 242 nM | TGI (SW-620 colon): 1130 nM | GI50 (SK-OV-3 ovarian): 297 nM | TGI (SK-OV-3 ovarian): 1300 nM | GI50 (NCI-H322M lung): 634 nM | TGI (NCI-H322M lung): 2890 nM | GI50 (SF-539 CNS): 169 nM | TGI (SF-539 CNS): 1110 nM | GI50 (MCF7 breast): 318 nM | TGI (MCF7 breast): 1830 nM | GI50 (SNB-19 CNS): 836 nM | TGI (SNB-19 CNS): 2550 nM
